Results taken from patent US20240285589A1, “TREATMENT USING AN ANTIVIRAL COMPOUND AND NITAZOXANIDE” (priority 2021, published 2024).

Tests used:
Type in all cases: in vivo, human
[1] = system: persistent Herpes 4 and Herpes 6 infections; experiment: Case Study 5: person with severe fatigue
Protocol: An active person had struggled with depression and obsessive-compulsive disorder in the past, but these problems were well-controlled with medications. They actively engaged in daily exercising, including skiing, bicycle riding, and vigorous walking. Suddenly, they developed severe fatigue. […] The patient was started on valacyclovir at a dose of 1000 mg two times per day orally. […] Then they were switched to famciclovir, titrating from 500 mg two times per day to 1000 mg two times per day orally. […] Within two months, the patient noted less fatigue.

[2] = system: persistent Herpes 1 and Herpes 4 infections; experiment: Case Study 4: person with memory problems, dementia consistent with Alzheimer's disease; conditions: after six months
Protocol: A person presented for evaluation of memory problems. Cognitive testing was consistent with dementia. A SPECT functional brain scan was performed. The results were consistent with Alzheimer's disease. […] The patient was started on antiviral therapy with valacyclovir 1000 mg two times per day orally. The valacyclovir was stopped and famciclovir was started at 500 mg two times per day orally. After one month, the famciclovir was increased to 1000 mg two times per day orally. […] was added to their regimen at a dose of 500 mg two times per day orally. […] Family members were thrilled with the improvement.

[3] = system: persistent Herpes 4 and 6 infections; experiment: Case Study 2: adult with multiple symptoms of VIFD (CFS, fibromyalgia, pain)
Description: An adult presented with multiple symptoms of VIFD across multiple systems. They experienced fatigue, brain fog, and unrefreshing sleep consistent with CFS. They experienced muscle and joint pain with trigger point pain and exaggerated reactions to pain consistent with fibromyalgia. They experienced pelvic and vaginal pain, headaches, depression, anxiety, sore throat, painful lymph nodes, numbness, and generalized pain. The symptoms involved the central nervous system, the genitourinary system, the gastrointestinal system, the immune system, the musculoskeletal system and the peripheral nervous system. […] The dose of valacyclovir was increased to 2000 mg two times per day orally. […] NTZ was then added at 500 mg two times per day orally.

[4] = system: Epstein-Barr virus and Herpes 1 virus; experiment: Case Study 6: person with severe depression, IBS, brain fog, fatigue, headaches, SPECT; conditions: valacyclovir 1000 mg two times per day orally; after three months
Description: Scale illustrates levels of perfusion in a different manner from FIG. 1. The dark grey central portion of the scale illustrates statistically normal perfusion in a given area relative to a normative database. Areas of progressively lighter grey to white illustrate areas which are 2 standard deviation (SD), 3 SD, and 4 SD below the mean of the normative database, respectively.
A person presented with a history of depression since their teen years. They were severely depressed upon presentation (Quick Inventory of Depressive Symptomatology scale 26/27) and spent most of their time in their bedroom in the basement of their parent's house. They had withdrawn from college and had never held a full-time job. Their condition was complicated by irritable bowel syndrome, brain fog, pervasive fatigue, and headaches. […] The patient also underwent a functional brain scan (single photon emission computed tomography—SPECT). […] The patient was started on the antiviral valacyclovir at 1000 mg two times per day orally. […] NTZ was added at a dose of 500 mg two times per day orally. After one month, the dose of NTZ was increased to 1000 mg two times per day orally.

[5] = system: persistent Herpes 4 and 6 infections; experiment: Case Study 3: late-middle-aged person with Parkinson's disease symptoms and depression, perfusion SPECT; conditions: valacyclovir 1000 mg in the morning and 2000 mg at night orally; after three months
Description: FIGS. 1A-1B show perfusion SPECT scan from Case Study 3. […] Scale illustrates levels of perfusion with normal perfusion at the central light grey and decreased perfusion illustrated by progressively darker shades of grey.
A late-middle-aged person presented for evaluation of Parkinson's disease and depression. They had been diagnosed with Parkinson's disease by a neurologist based on clinical signs of tremor and bradykinesia. No neuroimaging had been done. […] A single-photon emission computed tomography (SPECT) brain perfusion scan and a dopamine transporter SPECT scan (DaTscan) were ordered. […] The patient was started on antiviral therapy with valacyclovir at 1000 mg two times per day orally. The dose was increased to 1000 mg orally in the morning and 2000 mg orally at night. […] A repeat perfusion SPECT brain scan was performed (FIG. 1B).

[6] = system: herpes 4 and 6 as persistent infections; experiment: Case Study 1: adult with CFS, anxiety and irritable bowel syndrome; conditions: valacyclovir 1000 mg two times per day orally, alone
Protocol: Antiviral therapy with valacyclovir at 1000 mg two times per day orally was begun. […] NTZ was added at 500 mg two times per day orally to the regimen.

CC(=O)OCC(CCn1cnc2cnc(N)nc21)COC(C)=O [famciclovir]
symptoms of severe fatigue ([1]; famciclovir titrated from 500 mg to 1000 mg two times per day orally, after three months): no improvement
memory function as reflected by scores on cognitive testing ([2]; famciclovir 500 mg then 1000 mg two times per day orally): modest improvement
daily memory function ([2]; famciclovir 1000 mg two times per day orally): struggled still with daily memory function

CC(C)[C@H](N)C(=O)OCCOCn1cnc2c(=O)[nH]c(N)nc21 [valacyclovir]
symptoms ([3]; valacyclovir 1000 mg two times per day orally, over three months): minor improvement
symptoms ([3]; valacyclovir increased to 2000 mg two times per day orally): slight additional benefit
symptoms of severe fatigue ([1]; valacyclovir 1000 mg bid orally, after four months increased to 2000 mg two times per day): did not improve
clarity of thinking [4]: could think more clearly
depression [4]: somewhat less depressed
fatigue [4]: somewhat less fatigued
improvement in symptoms [4]: roughly 20%
depression symptoms [5]: marked improvement
energy and motivation [5]: improved energy and motivation
tremor and bradykinesia [5]: continued to experience tremor and bradykinesia
brain fog, anxiety, bowel movements [6]: still struggled with brain fog, anxiety, and frequent bowel movements
fatigue [6]: modest improvement in fatigue
need to nap on a daily basis [6]: no longer needed to nap on a daily basis

CC(C)[C@H](N)C(=O)OCC(CO)OCn1cnc2c(=O)nc(N)[nH]c21 (some centres unmarked) [valganciclovir]
symptoms of severe fatigue ([1]; valganciclovir titrated from 450 mg to 900 mg two times per day, after four months): without improvement
